In data set [1] the target is T1, recombinant human CD38 (hCD38) (Homo sapiens, UniProt P28907).
T1 construct: the commercial recombinant hCD38 without a transmembrane region was partially used in this study; purchased Sino Biological 10818-H08H
T1 sequence (P28907 43-300 limits assumed): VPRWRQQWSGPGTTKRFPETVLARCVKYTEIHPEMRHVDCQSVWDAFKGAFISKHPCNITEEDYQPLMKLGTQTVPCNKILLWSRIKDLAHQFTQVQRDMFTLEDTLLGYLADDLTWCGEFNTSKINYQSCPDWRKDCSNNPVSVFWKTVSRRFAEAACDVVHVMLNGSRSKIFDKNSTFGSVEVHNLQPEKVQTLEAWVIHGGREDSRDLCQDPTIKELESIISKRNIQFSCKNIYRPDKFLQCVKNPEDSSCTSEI
Kind of data set: CD38 hydrolase activity, recombinant hCD38 (ε-NAD+ substrate). Format: biochemical. As to conditions: sUA 0–500 μM, Figure 1B. Here is the method: The hydrolase activity of CD38 was measured according to a previous report ([de Oliveira et al., 2018]) with minor modifications. CD38 hydrolase activity was measured using 50 μM ε-NAD^+ as a substrate in hydrolase reaction buffer (250 mM sucrose, 40 mM Tris-HCl, pH 7.4). Briefly, cells or tissues were directly homogenized in blank reaction buffer on ice, and recombinant hCD38 was diluted in blank reaction buffer for subsequent assays. The tissue homogenates were centrifuged to collect the supernatant for enzyme assays. The loading volume of enzyme was 4–30 μL, the total volume of the reaction system was 3 mL. To detect enzyme inhibition, except when specified, the ligands were directly dissolved in hydrolase reaction buffer before pH adjustment, after which, the pH was immediately adjusted to 7.4. All reaction buffers, with or without ligands, were freshly prepared before each assay. For measurement of hydrolase activity, 3 mL reaction buffer containing enzyme, ε-NAD^+, and ligands at indicated concentrations was maintained at 37°C with constant stirring.
(§1) The reaction buffer for hydrolase or cyclase assays was excited at 300 nm, and fluorescence emission was measured every second at 410 nm by Shimazu RF-6000 spectrofluorometer. Hydrolase or cyclase activity was calculated from the linear portion of the time course by fitting a linear function to the data points recorded within 5 min.

Data set [2] deals with T1, recombinant human CD38 (hCD38). Description: CD38 cyclase activity, recombinant hCD38 (NGD substrate). Format: biochemical. Conditions: sUA 0–500 μM, Figure 1B. Here is the method:
The cyclase activity of CD38 was measured as previously described ([Higashida et al., 1999]; [Jin et al., 2007]). CD38 cyclase activity was measured using 60 μM NGD as a substrate in cyclase reaction buffer (100 mM KCl, 10 μM CaCl2, and 50 mM Tris-HCl, pH 6.6). Tissues were cut into pieces and suspended in the buffer (5 mM MgCl2, 10 mM Tris-HCl, pH 7.3) at 4°C for 30 min. Then, the suspension was homogenized on ice, and the supernatant was collected after centrifugation. To collect the crude membrane fractions, the supernatant was centrifuged at 105,000×g for 30 min. The final pellet was resuspended in 10 mM Tris-HCl solution (pH 6.6) for cyclase assay. Homogenates of THP-1 or A549 cells, and recombinant hCD38 were used directly for cyclase assays. The loading volume of enzyme was 4–20 μL, the total volume of reaction system was 3 mL. To detect enzyme inhibition, except when specified, the ligands were directly dissolved in cyclase reaction buffer before pH adjustment, after which, the pH was immediately adjusted to 6.6. […]
as §1

The target of data set [3] is T2, poly(ADP-ribose) polymerase (PARP) (Homo sapiens, UniProt P09874).
T2 construct: purchased R&D Systems 4677-096-K
Kind of data set: PARP activity (colorimetric kit). Conditions: Figure 3—figure supplement 2C. Format: biochemical. Here is the method: The activities of NAMPT and PARP were measured using commercial kits, HT Universal Colorimetric PARP Assay Kit, and CycLex NAMPT Colorimetric Assay Kit Ver.2. The solutions of ligands were freshly prepared (pH was adjusted to 7.4) and were immediately used for enzyme assays.

In data set [4] the test system is THP-1 cells. Description: Intracellular NAD+ assay in THP-1 cells. Format: cell-based, human. As to conditions: sUA 0–10 mg/dL pre-incubation 2 hr, then stimulation 6 hr. Here is the method:
Naïve THP-1 cells were pre-incubated with sUA (0–10 mg/dL) in RPMI-1640 medium containing 1% FBS for 2 hr, then the cells were washed twice with sterile PBS and stimulated with MSU crystals, cLPS, zymosan, or ATP for 6 hr. Subsequently, the cells were washed twice with sterile PBS, and then a total of 100 μL 5% ice-cold PCA was used to extract NAD^+ from cells in each well and medium as mentioned above.
As mentioned above, samples (cells, tissues, blood, or reaction buffer) were treated with ice-cold PCA, after extraction and centrifugation, the collected supernatant was appropriately diluted in 5% ice-cold PCA when applicable, and then was vortexed for 30 s and centrifuged at 15,000 rpm, 4°C for 5 min. Afterward, 30 μL supernatant was added into 200 μL 5 mM ammonium formate containing internal standards at indicated concentrations. Then, all the samples were vortexed for 30 s and centrifuged at 15,000 rpm, 4°C for 5 min again, the final supernatant was used for subsequent measurement. All the samples after handling were immediately analyzed in this study without freezing and thawing.
The LC-MS/MS system consisted of a triple quadrupole LCMS-8050 (Shimadzu) and an LC-30A system (Shimadzu). […] NAD^+ and NMN were measured independently in this study, as their peaks were hardly separated within a short time.

Data set [5] is described as follows: Solubility and crystal precipitation in solution. The data set is classed as physicochemical. The protocol:
Guanosine was dissolved in DMSO and diluted in the reaction buffer for subsequent assays.
MSU crystals were prepared by the recrystallization of oversaturated sUA according to a previous report ([Martinon et al., 2006]). Improper preparation of sUA solution may introduce crystals to cause false-positive or false-negative results. […] In this study, the sUA solution was prepared according to an improved protocol ([Ma et al., 2020]). […] Then, sUA solution was immediately filtered by 0.2 μm filters and diluted to experimental concentration (up to 10 mg/dL, 595 μM) for cell experiments. […]

T2 sequence (P09874 whole entry): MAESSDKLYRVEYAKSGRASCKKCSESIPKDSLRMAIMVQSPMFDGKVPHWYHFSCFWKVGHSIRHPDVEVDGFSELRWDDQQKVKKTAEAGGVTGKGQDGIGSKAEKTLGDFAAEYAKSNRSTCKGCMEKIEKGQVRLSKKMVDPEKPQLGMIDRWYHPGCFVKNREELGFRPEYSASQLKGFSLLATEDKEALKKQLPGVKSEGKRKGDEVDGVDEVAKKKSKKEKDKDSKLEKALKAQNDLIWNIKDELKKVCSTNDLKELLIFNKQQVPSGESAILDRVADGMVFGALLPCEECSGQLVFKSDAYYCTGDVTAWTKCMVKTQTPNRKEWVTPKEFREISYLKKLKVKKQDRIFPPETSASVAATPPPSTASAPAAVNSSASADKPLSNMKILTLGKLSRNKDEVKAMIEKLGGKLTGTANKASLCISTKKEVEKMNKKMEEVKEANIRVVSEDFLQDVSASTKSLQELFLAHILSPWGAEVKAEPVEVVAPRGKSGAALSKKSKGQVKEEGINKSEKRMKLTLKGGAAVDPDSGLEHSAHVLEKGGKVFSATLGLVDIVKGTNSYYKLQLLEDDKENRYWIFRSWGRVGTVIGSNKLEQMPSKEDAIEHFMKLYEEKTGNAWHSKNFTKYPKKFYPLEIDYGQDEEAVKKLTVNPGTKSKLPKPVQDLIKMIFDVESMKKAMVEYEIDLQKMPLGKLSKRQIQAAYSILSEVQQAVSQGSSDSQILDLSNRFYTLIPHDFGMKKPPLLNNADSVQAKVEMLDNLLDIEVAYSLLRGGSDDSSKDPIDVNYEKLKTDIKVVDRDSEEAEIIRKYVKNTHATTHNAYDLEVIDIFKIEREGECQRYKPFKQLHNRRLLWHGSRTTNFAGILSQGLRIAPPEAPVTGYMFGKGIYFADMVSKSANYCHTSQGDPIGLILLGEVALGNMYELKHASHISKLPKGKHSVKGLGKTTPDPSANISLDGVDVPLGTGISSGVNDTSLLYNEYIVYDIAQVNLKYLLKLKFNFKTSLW

On to `O=c1[nH]c(=O)c2[nH]c(=O)[nH]c2[nH]1` [sUA, uric acid], for which the Ki in data set [1] worked out at 65.7 µM; in data set [2], 57.1 µM. In addition, the “Effect on PARP activity” value in data set [3] is on record as “without affecting the activities”. Further, the “Intracellular NAD+” value in data set [4] is given as “boosted intracellular NAD^+”. Besides, the “Crystal precipitation in stock solution” value is reported as “Visible crystals were observed” in data set [5] (5 mg/mL in NaOH without pH adjustment, 2-month storage at 4°C) and “Crystals were immediately precipitated after dissolution” in data set [5] (50 mg/mL in NaOH without pH adjustment). In data set [5] (long-term storage at 4°C), the “Crystal precipitation in high-concentration stock solutions” value is given as “promoted crystal precipitation”.

As usually defined, the Ki is the dissociation constant of the complex between target and ligand, obtained from inhibition or displacement.

The values above are taken from paper PMC11554305, “Functional identification of soluble uric acid as an endogenous inhibitor of CD38” (eLife, 2024).
